This is an account of results in patent publication US20260015333A1, “COMPOUNDS AND METHODS FOR INHIBITION OF THE EVOLUTION OF […]” (priority 2022, published 2026).

The target in one assay is Mfd (Salmonella typhimurium, UniProt Q8ZQ01). As to the kind of experiment: biochemical. Further details: species or system S. typhimurium. As to the method: (§1) FIGS. 2A-2D depict how ARM-1 affects Mfd's biochemical activity. FIG. 2A depicts how the kd of ARM-1 was determined using microscale thermophoresis. Data shown represent a minimum of three independent experiments. FIG. 2B depicts a NADH-coupled ATPase assay. ATP hydrolysis by Mfd was coupled to NADH oxidation. Phosphoenolpyruvate is converted to pyruvate by pyruvate kinase, transferring a phosphate group onto ADP, which is only present in the reaction following ATP hydrolysis by Mfd. Pyruvate is then converted to lactate by lactate dehydrogenase, oxidizing NADH to NAD^+. Absorbance at 340 nm by NADH is used to monitor the reaction. Data shown represent a minimum of 3 biological replicates. FIG. 2C depicts a transcription roadblock assay. A P32-labled 176 bp PCR fragment was incubated with E. coli RNAP along with saturating concentrations of ATP, GTP, and UTP. 100 nM S. typhimurium ST19 Mfd preincubated with indicated concentrations of ARM-1 was added and the reaction allowed to proceed for 6 minutes. DNA products were then resolved on a polyacrylamide gel and analyzed by phosphorimaging. […] Quantification of these gels is shown below each lane. […]
ATPase assays were performed as described in Kiiansita et al., 2003. […] To start reaction, varying quantities of ATP were added and absorbance at 340 nm was measured every 60 seconds for 1 hour in an Epoch2 microplate spectrophotometer (BioTek). […]

A further assay deals with S. typhimurium ST19 Mfd. As to the kind of experiment: RNAP displacement (transcription roadblock) assay. To be noted: Mfd 100 nM pre-incubated with ARM-1 (12.5 μM); without ARM-1 EC/IC=0.33. It counts as biochemical. As to the method: as §1
(§2) Mfd translocates along double-stranded DNA and dislodges stalled RNAP complexes. […] When quantified, a ratio of EC to IC of approximately 1 was observed, which was consistent with prior work. […]

Another assay concerns the target T1, E. coli RNAP (Escherichia coli, UniProt P0A7Z4+P0A800+P0A8T7+P0A8V2).
T1 construct: purchased NEB
As to the kind of experiment: RNAP displacement assay, control reactions in the absence of Mfd. Type of assay: biochemical. The note with it: RNAP with 12.5 μM ARM-1, no Mfd. As to the method:
as §1, §2

Chain of Mfd (Q8ZQ01 entry or part of it): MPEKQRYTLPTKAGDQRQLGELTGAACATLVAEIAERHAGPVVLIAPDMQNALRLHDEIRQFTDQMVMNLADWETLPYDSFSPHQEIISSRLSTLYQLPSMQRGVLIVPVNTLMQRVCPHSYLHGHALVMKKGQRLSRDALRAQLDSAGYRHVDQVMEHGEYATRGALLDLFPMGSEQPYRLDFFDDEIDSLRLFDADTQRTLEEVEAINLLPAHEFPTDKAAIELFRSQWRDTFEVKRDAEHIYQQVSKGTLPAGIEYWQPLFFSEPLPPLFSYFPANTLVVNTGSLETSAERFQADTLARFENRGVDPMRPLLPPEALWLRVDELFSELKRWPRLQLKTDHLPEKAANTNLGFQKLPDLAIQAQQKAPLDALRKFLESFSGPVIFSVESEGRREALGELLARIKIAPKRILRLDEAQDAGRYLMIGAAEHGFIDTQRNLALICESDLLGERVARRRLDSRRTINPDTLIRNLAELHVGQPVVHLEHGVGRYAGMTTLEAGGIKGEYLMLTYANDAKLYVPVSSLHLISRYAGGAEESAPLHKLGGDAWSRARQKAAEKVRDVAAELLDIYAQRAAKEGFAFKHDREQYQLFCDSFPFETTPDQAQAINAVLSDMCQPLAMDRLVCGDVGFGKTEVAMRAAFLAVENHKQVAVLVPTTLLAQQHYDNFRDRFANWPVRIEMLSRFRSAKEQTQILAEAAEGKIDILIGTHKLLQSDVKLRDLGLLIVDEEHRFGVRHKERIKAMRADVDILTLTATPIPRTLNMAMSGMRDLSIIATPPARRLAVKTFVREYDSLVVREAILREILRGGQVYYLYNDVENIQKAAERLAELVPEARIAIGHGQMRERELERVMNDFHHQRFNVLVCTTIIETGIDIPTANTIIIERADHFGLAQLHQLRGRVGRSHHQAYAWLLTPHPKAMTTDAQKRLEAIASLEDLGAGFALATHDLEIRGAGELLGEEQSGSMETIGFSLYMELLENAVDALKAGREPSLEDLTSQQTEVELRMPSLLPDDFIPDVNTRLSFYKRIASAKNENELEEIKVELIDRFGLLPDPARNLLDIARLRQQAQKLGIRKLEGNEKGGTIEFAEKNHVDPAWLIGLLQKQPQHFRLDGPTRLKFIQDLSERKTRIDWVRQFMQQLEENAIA
T1 sequence (P0A7Z4 whole entry): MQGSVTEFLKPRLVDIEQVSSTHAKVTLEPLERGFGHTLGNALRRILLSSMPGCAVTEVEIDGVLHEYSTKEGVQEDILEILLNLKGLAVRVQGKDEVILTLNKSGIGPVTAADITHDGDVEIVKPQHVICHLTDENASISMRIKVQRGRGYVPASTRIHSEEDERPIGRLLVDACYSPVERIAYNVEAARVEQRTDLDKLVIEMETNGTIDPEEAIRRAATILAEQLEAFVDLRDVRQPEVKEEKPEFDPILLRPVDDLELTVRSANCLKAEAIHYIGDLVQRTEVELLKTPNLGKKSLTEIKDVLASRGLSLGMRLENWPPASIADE
T1 sequence (P0A8V2 whole entry): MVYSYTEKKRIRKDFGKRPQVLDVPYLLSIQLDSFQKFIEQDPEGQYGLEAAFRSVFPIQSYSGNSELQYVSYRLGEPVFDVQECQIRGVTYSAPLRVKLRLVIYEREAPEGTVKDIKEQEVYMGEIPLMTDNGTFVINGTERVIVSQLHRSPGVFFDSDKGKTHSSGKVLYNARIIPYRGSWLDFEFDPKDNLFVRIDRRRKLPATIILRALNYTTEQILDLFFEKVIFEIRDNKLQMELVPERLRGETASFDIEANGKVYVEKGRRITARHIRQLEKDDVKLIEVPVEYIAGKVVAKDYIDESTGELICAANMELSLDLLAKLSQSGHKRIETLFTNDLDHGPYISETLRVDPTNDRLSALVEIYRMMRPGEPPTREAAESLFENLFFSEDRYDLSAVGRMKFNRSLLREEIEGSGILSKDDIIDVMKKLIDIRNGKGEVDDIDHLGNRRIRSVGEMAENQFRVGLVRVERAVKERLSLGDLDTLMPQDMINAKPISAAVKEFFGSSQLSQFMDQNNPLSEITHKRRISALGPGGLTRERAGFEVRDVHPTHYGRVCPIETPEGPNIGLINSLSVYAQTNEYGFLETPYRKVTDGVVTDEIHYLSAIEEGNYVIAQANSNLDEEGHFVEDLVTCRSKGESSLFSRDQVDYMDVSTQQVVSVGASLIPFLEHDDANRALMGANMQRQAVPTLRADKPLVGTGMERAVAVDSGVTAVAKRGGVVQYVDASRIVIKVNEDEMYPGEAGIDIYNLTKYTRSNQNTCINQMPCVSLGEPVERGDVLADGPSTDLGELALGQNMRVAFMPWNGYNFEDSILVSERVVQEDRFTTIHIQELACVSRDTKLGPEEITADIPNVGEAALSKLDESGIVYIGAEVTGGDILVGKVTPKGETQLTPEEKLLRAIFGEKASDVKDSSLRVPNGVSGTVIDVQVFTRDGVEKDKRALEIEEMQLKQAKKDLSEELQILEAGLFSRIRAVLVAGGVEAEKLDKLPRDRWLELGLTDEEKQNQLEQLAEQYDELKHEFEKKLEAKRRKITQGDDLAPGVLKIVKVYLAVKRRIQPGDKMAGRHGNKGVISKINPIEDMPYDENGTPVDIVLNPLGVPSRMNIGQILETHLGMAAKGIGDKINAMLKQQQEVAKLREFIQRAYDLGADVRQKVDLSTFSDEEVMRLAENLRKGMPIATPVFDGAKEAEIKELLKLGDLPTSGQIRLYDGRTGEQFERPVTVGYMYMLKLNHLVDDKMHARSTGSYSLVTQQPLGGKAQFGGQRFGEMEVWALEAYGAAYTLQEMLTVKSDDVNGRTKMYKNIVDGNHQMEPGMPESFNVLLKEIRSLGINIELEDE
T1 sequence (P0A800 2-91): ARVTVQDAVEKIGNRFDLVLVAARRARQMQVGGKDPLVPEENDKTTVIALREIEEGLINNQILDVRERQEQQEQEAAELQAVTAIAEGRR
T1 sequence (P0A8T7 whole entry): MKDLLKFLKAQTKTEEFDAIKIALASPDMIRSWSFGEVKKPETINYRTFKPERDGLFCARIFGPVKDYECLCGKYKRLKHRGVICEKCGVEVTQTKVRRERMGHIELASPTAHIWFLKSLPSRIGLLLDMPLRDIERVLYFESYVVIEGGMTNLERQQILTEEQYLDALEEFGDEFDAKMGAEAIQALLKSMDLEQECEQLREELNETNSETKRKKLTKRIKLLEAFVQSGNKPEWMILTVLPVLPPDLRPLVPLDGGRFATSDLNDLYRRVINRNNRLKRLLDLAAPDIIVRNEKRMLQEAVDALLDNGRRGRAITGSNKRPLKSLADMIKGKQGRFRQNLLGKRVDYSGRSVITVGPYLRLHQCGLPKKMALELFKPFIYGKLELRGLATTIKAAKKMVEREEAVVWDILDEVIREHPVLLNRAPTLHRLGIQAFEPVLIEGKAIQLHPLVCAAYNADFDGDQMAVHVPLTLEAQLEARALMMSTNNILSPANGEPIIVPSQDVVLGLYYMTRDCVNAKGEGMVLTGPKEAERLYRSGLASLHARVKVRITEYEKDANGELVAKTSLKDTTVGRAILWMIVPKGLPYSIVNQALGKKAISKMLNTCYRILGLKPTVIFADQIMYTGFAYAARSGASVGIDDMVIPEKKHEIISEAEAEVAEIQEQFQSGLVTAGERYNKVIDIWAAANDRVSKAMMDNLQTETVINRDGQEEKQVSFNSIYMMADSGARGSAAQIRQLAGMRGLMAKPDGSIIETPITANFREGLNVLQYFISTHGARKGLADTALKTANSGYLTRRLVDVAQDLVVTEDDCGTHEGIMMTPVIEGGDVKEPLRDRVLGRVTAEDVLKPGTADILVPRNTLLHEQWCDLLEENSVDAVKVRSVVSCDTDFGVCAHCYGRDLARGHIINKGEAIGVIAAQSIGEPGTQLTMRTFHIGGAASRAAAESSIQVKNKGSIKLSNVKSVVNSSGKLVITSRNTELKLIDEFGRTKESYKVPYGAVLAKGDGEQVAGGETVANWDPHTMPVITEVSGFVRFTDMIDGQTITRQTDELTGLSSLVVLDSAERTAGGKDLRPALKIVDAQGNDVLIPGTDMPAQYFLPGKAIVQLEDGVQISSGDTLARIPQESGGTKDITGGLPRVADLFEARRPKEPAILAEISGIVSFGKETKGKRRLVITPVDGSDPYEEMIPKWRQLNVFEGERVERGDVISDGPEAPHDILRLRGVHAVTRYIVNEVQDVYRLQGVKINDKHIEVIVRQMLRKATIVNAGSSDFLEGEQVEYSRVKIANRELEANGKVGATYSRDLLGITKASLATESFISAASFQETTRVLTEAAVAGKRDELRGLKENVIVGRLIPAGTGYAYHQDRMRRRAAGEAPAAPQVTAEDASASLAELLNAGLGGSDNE

Take `Cc1cc(Br)ccc1-c1ccc(CNCCCN(C)C)o1` [ARM-1, N^1-((5-(4-bromo-2-methylphenyl)furan-2-yl)methyl)-N^3,N^3-dimethylpropane-1,3-diamine]: the “ATP hydrolysis by Mfd” value on Mfd (6.25 μM to 50 μM ARM-1, ratios of 125 to 1000 ARM-1 per Mfd) is “dose dependent increase”. The fold induction at 50 µM at Mfd (50 μM ARM-1, read-out: ATPase activity enhancement) was approximately 3. Also, the “EC/IC (elongation complex to initiation complex ratio)” value in the assay with S. typhimurium ST19 Mfd is 0.46. For the same molecule, at E. coli RNAP, the “changes on RNAP complexes in the absence of Mfd” value was “did not have any detectable changes”.
